Values belong to the molecule of their own block, whether it stands above or below them.
Columns and labels:
Format in all cases: cell-based
[1] = target: T1, CRBN with proteins of a human ORF(eome) cDNA library (Homo sapiens, UniProt Q96SW2); assay: MAPPIT-derivative cell microarray screen of a human ORF(eome) cDNA library with CRBN bait (pSEL-CRBN); conditions: CC-220 10 μM; four ORF cDNAs confirmed in dose-response
T1 construct: expressed in transfected cells; host or cells: HEK293T
Procedure: In order to identify ligand-induced CRBN substrates, or neosubstrates, a MAPPIT cell microarray screen was performed using the procedure described in Lievens, et al. “Proteome-scale binary interactomics in human cells.” Molecular & Cellular Proteomics 15.12 (2016): 3624-3639. […] These transfected cells were then added to microarray screening plates containing a prey gp130 fusion expression plasmid collection covering over 15,000 ORFs. Each spot in the microarray contained a different gp130-ORF fusion expression plasmid, as well as a STAT3-responsive fluorescence protein-encoding reporter plasmid. CRBN bait transfected cells landing and attaching on these spots therefore become transfected as well with the gp130-ORF prey plasmid and the reporter plasmid, resulting in a different CRBN-ORF combination being tested in the cells on every different microarray spot. Twenty-four hours after transfection cells were differentially stimulated with erythropoietin with and without the CRBN ligand CC-220 (10 μM), and reporter signal (GFP-like fluorescence reporter) was read out 48 hours later.

CRBN-GSPT1 interaction = target: T2, CRBN-GSPT1 interaction (Homo sapiens, UniProt Q96SW2); assay: MAPPIT-derivative assay, CRBN bait receptor fusion (pSEL-CRBN) with gp130-GSPT1 (domain 2+3), luciferase reporter in HEK293T cells; conditions: dose-response, EPO-stimulated, 24 hours compound treatment
T2 construct: expressed in transfected cells; host or cells: HEK293T
Description: (§1) In order to identify ligand-induced CRBN substrates, or neosubstrates, here we use a derivative of the MAPPIT assay, applying the procedure described in Lemmens, et al. “MAPPIT, a mammalian two-hybrid method for in-cell detection of protein-protein interactions,” Methods Mol Biol. 2015; 1278:447-55. The traditional MAPPIT assay has been used to monitor protein-protein interactions. A bait protein (protein A) is expressed as a fusion protein in which it is genetically fused to an engineered intracellular receptor domain of the leptin receptor, which is itself fused to the extracellular domain of the erythropoietin (Epo) receptor. […] Activation of STAT3 can be monitored by introduction of a STAT3-responsive reporter gene, including a luciferase-encoding gene or a gene encoding a fluorescent marker such as GFP or some other type of Fluorescent Protein (EGFP, etc.). […]
(§2) In this Example 1, we used a derivative of the MAPPIT assay that we developed specifically for use in determining CRBN-ligand induced protein interactions, i.e. using a specific CRBN bait protein and assaying for ligand-dependent induction of protein complex formation. The CRBN bait protein is expressed as a fusion with the MAPPIT chimeric membrane receptor and the interacting target protein is fused with the cytoplasmic gp130 receptor fragment (gp130-IKZF1(isoform 7), gp130-target X, gp130-GSPT1(domain 2+3) or gp130-GSPT2). […]

CRBN-GSPT2 interaction = target: T3, CRBN-GSPT2 interaction (Homo sapiens, UniProt Q96SW2); assay: MAPPIT-derivative assay, CRBN bait receptor fusion (pSEL-CRBN) with gp130-GSPT2, luciferase reporter in HEK293T cells; conditions: dose-response, EPO-stimulated, 24 hours compound treatment
T3 construct: expressed in transfected cells; host or cells: HEK293T
Description: as §1, §2

[2] = target: T4, FKBP1A (FKBP12)-calcineurin PPP3CA interaction (Homo sapiens, UniProt P62942); assay: MAPPIT-derivative assay, FKBP1A bait receptor fusion (pSEL-FKBP1A) with gp130 fusion of calcineurin PPP3CA catalytic subunit; conditions: dose-response; without or with co-expression of PPP3R2 regulatory subunit
T4 construct: expressed in transfected cells; host or cells: HEK293T
Procedure: (§3) Luciferase activity was measured 24 hours after test compound treatment using the Luciferase Assay System kit (PROMEGA, Madison, Wis.) with an Ensight plate reader (PERKIN ELMER LIFE SCIENCES, Waltham, Mass.). […] Error bars represent standard deviations. Curves were fit using 4-parameter nonlinear regression in […] PRISM software.

[3] = target: T5, FKBP1A (FKBP12)-MTOR (FRB domain) interaction (Homo sapiens, UniProt P62942); assay: MAPPIT-derivative assay, FKBP1A bait receptor fusion (pSEL-FKBP1A) with gp130-MTOR (FRB domain); conditions: dose-response, HEK293T, EPO-stimulated
T5 construct: expressed in transfected cells; host or cells: HEK293T
Procedure: as §3
Luciferase activity was measured 24 hours after test compound treatment using the Luciferase Assay System kit (PROMEGA, Madison, Wis.) with an Ensight plate reader (PERKIN ELMER LIFE SCIENCES, Waltham, Mass.). […] Error bars represent standard deviations.

T4 sequence (P62942 whole entry, other chains not shown, the tested form may be a part): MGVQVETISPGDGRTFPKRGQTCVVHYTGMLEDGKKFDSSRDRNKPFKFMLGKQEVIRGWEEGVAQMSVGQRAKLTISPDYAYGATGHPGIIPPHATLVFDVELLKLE
T4 sequence (Q96LZ3 whole entry partner, other chains not shown, the tested form may be a part): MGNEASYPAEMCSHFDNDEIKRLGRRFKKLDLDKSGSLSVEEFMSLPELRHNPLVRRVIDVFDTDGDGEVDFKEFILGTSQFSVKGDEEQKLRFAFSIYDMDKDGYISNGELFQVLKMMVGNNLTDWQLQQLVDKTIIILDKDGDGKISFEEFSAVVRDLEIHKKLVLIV
T5 sequence (P62942 whole entry, the tested form may be a part): as the sequence (P62942 whole entry, other chains not shown, the tested form may be a part) above
T5 sequence (P42345 2012-2144 partner limits assumed): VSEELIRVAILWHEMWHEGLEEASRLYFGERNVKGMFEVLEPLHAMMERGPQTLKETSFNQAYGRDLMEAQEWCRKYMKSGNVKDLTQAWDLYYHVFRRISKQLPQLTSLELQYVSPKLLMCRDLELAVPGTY
T2 sequence (Q96SW2 whole entry, the tested form may be a part): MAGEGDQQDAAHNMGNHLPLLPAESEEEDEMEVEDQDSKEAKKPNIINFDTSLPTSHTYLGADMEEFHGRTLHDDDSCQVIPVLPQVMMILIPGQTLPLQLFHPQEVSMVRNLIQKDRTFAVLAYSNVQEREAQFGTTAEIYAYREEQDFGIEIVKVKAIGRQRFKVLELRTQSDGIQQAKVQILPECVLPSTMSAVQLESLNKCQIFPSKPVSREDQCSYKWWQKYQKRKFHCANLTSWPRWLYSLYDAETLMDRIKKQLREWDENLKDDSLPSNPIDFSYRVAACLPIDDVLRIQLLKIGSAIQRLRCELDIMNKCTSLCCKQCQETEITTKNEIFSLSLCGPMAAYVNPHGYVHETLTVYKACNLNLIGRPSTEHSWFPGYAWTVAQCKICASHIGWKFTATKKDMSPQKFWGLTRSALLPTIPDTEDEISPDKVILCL
T2 sequence (P15170 299-495 partner limits assumed): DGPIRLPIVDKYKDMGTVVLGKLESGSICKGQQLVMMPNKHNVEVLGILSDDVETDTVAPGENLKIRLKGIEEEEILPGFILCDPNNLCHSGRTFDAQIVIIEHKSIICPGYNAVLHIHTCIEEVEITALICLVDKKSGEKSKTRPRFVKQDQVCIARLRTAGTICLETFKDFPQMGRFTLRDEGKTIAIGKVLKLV
T2 sequence (Q16531 whole entry partner, the tested form may be a part): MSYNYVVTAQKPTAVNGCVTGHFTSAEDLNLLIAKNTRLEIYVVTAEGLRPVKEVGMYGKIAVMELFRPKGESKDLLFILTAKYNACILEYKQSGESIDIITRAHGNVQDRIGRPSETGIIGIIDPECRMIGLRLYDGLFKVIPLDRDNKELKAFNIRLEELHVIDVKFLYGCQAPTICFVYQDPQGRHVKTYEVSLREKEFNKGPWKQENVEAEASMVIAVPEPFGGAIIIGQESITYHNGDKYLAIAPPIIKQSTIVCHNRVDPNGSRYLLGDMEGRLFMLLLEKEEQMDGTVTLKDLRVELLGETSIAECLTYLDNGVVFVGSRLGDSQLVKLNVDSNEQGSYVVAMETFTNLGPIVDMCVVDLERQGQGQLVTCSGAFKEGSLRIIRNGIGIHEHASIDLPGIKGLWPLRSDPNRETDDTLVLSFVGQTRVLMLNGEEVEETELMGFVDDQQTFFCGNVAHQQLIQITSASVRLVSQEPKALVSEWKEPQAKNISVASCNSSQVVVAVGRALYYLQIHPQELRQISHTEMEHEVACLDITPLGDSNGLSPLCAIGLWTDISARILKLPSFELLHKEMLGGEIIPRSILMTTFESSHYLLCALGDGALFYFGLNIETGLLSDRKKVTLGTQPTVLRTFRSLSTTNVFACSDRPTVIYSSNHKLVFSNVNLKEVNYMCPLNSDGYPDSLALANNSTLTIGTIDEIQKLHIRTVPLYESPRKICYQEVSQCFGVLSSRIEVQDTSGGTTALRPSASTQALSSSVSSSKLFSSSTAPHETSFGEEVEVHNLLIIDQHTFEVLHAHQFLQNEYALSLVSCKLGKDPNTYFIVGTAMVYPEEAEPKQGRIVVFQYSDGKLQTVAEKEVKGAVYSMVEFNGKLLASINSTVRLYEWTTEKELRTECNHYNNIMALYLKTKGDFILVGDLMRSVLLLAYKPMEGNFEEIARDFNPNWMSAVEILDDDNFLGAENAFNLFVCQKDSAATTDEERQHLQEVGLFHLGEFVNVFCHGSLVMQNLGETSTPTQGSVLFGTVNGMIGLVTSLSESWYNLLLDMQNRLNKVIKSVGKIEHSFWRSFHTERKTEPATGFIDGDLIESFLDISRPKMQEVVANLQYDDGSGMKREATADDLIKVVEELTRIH
T3 sequence (Q96SW2 whole entry, the tested form may be a part): as the sequence (Q96SW2 whole entry, the tested form may be a part) above
T3 sequence (Q8IYD1 whole entry partner, the tested form may be a part): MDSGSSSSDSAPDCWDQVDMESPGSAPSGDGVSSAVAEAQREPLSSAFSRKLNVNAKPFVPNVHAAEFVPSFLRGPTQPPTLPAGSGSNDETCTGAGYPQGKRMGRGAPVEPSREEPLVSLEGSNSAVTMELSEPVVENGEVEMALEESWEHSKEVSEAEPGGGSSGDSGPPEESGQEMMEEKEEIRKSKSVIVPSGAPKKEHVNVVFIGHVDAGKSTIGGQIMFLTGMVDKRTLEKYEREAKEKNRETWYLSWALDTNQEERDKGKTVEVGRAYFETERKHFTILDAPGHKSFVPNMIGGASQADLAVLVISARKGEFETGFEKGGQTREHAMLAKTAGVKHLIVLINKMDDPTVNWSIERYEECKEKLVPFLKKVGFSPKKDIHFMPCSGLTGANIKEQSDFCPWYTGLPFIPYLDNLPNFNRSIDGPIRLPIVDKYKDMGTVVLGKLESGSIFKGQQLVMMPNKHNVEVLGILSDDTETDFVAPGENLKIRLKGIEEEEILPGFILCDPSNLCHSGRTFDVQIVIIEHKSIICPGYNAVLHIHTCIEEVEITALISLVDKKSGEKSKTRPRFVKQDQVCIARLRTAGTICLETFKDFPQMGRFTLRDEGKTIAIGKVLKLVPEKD
T3 sequence (Q16531 whole entry partner, the tested form may be a part): as the sequence (Q16531 whole entry partner, the tested form may be a part) above
T1 sequence (Q96SW2 whole entry): as the sequence (Q96SW2 whole entry, the tested form may be a part) above
T1 sequence (Q16531 whole entry partner): as the sequence (Q16531 whole entry partner, the tested form may be a part) above

compound-induced recruitment of GSPT1 to CRBN (reporter signal) (CRBN-GSPT1 interaction): only recruited through CC-885
compound-induced recruitment of GSPT2 to CRBN (reporter signal) (CRBN-GSPT2 interaction): only recruited through CC-885
Compound: Cc1ccc(NC(=O)NCc2ccc3c(c2)CN(C2CCC(=O)NC2=O)C3=O)cc1Cl (stereo not drawn) [CC-885]

compound-dependent binding of PPP3CA to FKBP1A (reporter signal) [2]: binding of PPP3CA can be monitored
Compound: C=CC[C@@H]1/C=C(\C)C[C@H](C)C[C@H](OC)[C@H]2O[C@@](O)(C(=O)C(=O)N3CCCC[C@H]3C(=O)O[C@H](/C(C)=C/[C@@H]3CC[C@@H](O)[C@H](OC)C3)[C@H](C)[C@@H](O)CC1=O)[C@H](C)C[C@@H]2OC [FK506, tacrolimus]

compound-dependent binding of PPP3CA to FKBP1A (reporter signal) [2]: binding of PPP3CA can be monitored
Compound: CC[C@@H]1/C=C(\C)C[C@H](C)C[C@H](OC)[C@H]2O[C@@](O)(C(=O)C(=O)N3CCCC[C@H]3C(=O)O[C@H](/C(C)=C/[C@@H]3CC[C@H](Cl)[C@H](OC)C3)[C@H](C)[C@@H](O)CC1=O)[C@H](C)C[C@@H]2OC [pimecrolimus]

More lines, now with the values behind:

Compound: O=C1CC[C@H](N2Cc3c(OCc4ccc(CN5CCOCC5)cc4)cccc3C2=O)C(=O)N1 [CC-220]
fluorescence reporter signal, ORF proteins recruited to CRBN [1]: significant induction of signal is observed for a number of ORF cDNAs

Compound: CO[C@H]1C[C@@H]2CC[C@@H](C)[C@@](O)(O2)C(=O)C(=O)N2CCCC[C@H]2C(=O)O[C@H]([C@H](C)C[C@@H]2CC[C@@H](OCCO)[C@H](OC)C2)CC(=O)[C@H](C)/C=C(\C)[C@@H](O)[C@@H](OC)C(=O)[C@H](C)C[C@H](C)/C=C/C=C/C=C/1C [everolimus]
compound-induced recruitment of MTOR to FKBP1A (reporter signal) [3]: compound-induced recruitment of MTOR is detected
